# Source: US20260015322A1, “DELIVERY OF THERAPEUTIC ALKALOID COMPOUNDS” (priority 2022, published 2026)
# Tests used:
# Format in all cases: in vitro ADME
# [1] = Plasma Stability Assay (Example A3), rat plasma; settings: 10 μM, 37° C., prodrug remaining
# Excerpt: (§1) The data is represented in the table below.
# [2] = Metabolic Stability in Human Hepatocytes; settings: cryopreserved human hepatocytes, 5×10^5 viable cells/mL, 37° C.
# Method: A 2.5 uL aliquot of 100 μM test compound was incubated with 247.5 uL of cryopreserved hepatocytes suspended in serum-free incubation medium at 5×10^5 viable cells/mL. The mixture was incubated at 37° C. and shaken at 500 rpm for the designated time points (0.5, 15, 30, 60, 90, or 120 min). At each time point, 25 μL aliquot of incubation mixture was transferred to 125 μL of cold acetonitrile containing internal standard, followed by centrifugation for 30 min at 3,220 g. 100 μL of supernatant was mixed with 100 μL of distilled water for analysis by LC-MS/MS. Peak areas were determined from extracted ion chromatograms and in vitro half-life (t1/2) was determined from the concentration vs time regression slope, in vitro t1/2=0.693/k. Conversion of the in vitro t1/2 (in min) into the in vitro intrinsic clearance (in vitro CLint, in μL/min/10^6 cells) is done using: in vitro CLint=kV/N.
# [3] = Plasma Stability Assay (Example A3), human plasma; settings: 10 μM, 37° C., prodrug remaining
# Excerpt: as §1
Structure (SMILES),Prodrug (%) ([1]; 0 min),Prodrug (%) ([1]; 10 min),Prodrug (%) ([1]; 30 min),Prodrug (%) ([1]; 60 min),Prodrug (%) ([1]; 120 min),Prodrug (%) ([1]; 240 min),t1/2 [2] [h],Prodrug (%) ([3]; 0 min),Prodrug (%) ([3]; 10 min),Prodrug (%) ([3]; 30 min),Prodrug (%) ([3]; 60 min),Prodrug (%) ([3]; 120 min),Prodrug (%) ([3]; 240 min)
"COc1ccc([C@@]23CCC(OP4(=O)OCCCO4)=C[C@@H]2N(C)CC3)cc1OC [Compound 422, 2-(((3aS,7aS)-3a-(3,4-dimethoxyphenyl)-1-methyl-2,3,3a,4,5,7a-hexahydro-1H-indol-6-yl)oxy)-1,3,2-dioxaphosphinane 2-oxide]",100.0,>99,>99,>99,91.0,76.8,6.1,100.0,89.4,73.1,62.4,39.2,19.6
"COc1ccc([C@@]23CCC(OP(=O)(O)OCOC(=O)C(C)(C)C)=C[C@@H]2N(C)CC3)cc1OC [Compound 409, [[(3aS,7aS)-3a-(3,4-dimethoxyphenyl)-1-methyl-3,4,5,7a-tetrahydro-2H-indol-6-yl]oxy-hydroxy-phosphoryl]oxymethyl 2,2-dimethylpropanoate]",100.0,89.9,81.2,71.0,44.5,22.7,,100.0,>99,95.2,93.0,87.3,75.8
"COc1ccc([C@@]23CCC(OP4(=O)OC(C)CC(C)O4)=C[C@@H]2N(C)CC3)cc1OC (stereo partly drawn) [Compound 423, 2-(((3aS,7aS)-3a-(3,4-dimethoxyphenyl)-1-methyl-2,3,3a,4,5,7a-hexahydro-1H-indol-6-yl)oxy)-4,6-dimethyl-1,3,2-dioxaphosphinane 2-oxide]",100.00,>99,>99,91.05,83.29,67.32,0.95,100.00,>99,>99,98.77,97.80,89.67
"COc1ccc([C@@]23CCC(OP(=O)(O)OCOC(=O)C(C)C)=C[C@@H]2N(C)CC3)cc1OC [Compound 408, [[(3aS,7aS)-3a-(3,4-dimethoxyphenyl)-1-methyl-3,4,5,7a-tetrahydro-2H-indol-6-yl]oxy-hydroxy-phosphoryl]oxymethyl 2-methylpropanoate]",100.0,63.8,29.2,8.2,0.8,0.0,,100.0,94.2,82.6,69.1,45.4,23.5
